Patent publication US8314060B2, “Peptide conjugated anti-cancer prodrugs” (BioSight Ltd., priority 2000, dated 2012)
Non-standard residues stand in square brackets, D forms with d. Residues, ends and D or L forms follow the SMILES beside them. No end group written: not given here. *: point of attachment. Phe(4-N(CH2CH2Cl)2) = N[C@@H](Cc1ccc(N(CCCl)CCCl)cc1)C(=O)O; Chlorambucil = O=C(CCCc1ccc(N(CCCl)CCCl)cc1)*

Assays:
[1] = tested on: Human umbilical vein-derived endothelial cells (HUVEC); assay: Tissue culture cell counting (cell coulter) after 72 hours, HUVEC (normal cells); assay type: cell-based
Protocol: (§1) Human umbilical vein-derived endothelial cells (HUVEC) were prepared from umbilical veins and cultured as described previously. The HUVE cells were grown in M199 medium supplemented with 20% fetal calf serum, vitamins, 1 ng/ml hbFGF, and antibiotics.
(§2) To determine the biological activity of the drugs, HUVEC (normal cells) or melanoma (cancer) cells were seeded in 24-well dish at a concentration of 10,000-20,000 cells/well, and increasing concentrations of the prodrug 3-Peptide I-Chlorambucil (P-CAC) were added to the wells. As controls, either Cholorambucil or the peptide carrier was added under the same experimental conditions. After 72 hours the cells were washed with phosphate buffer saline (PBS), suspended with 0.5% EDTA/PBS, and counted using cell coulter (Electronics ZM). Cell viability was verified by trypan-blue staining and hemocytometer analysis. IC50 indicates the concentration of the drug measured at 50% of the cell death.

[2] = tested on: Human melanoma cells (WW-94); assay: Tissue culture cell counting (cell coulter) after 72 hours, melanoma cells; assay type: cell-based; conditions: melanoma (cancer) cells, FIG. 4A, read-out: IC50 (concentration of the drug measured at 50% of the cell death)
Protocol: (§3) Human melanoma cells (WW-94) were grown in 50% DMEM/50% F-12 medium supplemented with 10% fetal calf serum and antibiotics.
as §2

HUVEC = assay: MTT assay for estimation of toxicity, HUVEC (normal cells); assay type: cell-based, human
Protocol: as §1
(§4) HUVEC or melanoma cells were seeded in 96-well ELISA dish at a concentration of 10,000-20,000 cells/well, and various concentrations of the prodrug 1 were added to the wells as described in Example 17. As a control, Melphalan was added under the same experimental conditions. After 72 hours the medium was aspirated, and DMEM containing 5% FCS and 0.5 mg/ml MTT (an indicator of cell viability) was added. The cells were incubated for 2-4 hours at 37° C. and 5% CO2. At the end of the incubation the cells were washed with phosphate buffer saline (PBS), and dissolved with DMSO. The results were analysed using Techan ELISA reader equipped with a 570 nm filter.

melanoma cells = assay: MTT assay for estimation of toxicity, melanoma cells; assay type: cell-based; conditions: Homo sapiens, 72 hours, FIG. 5B
Protocol: as §3, §4

purified MMPs = assay: In-vitro release of Chlorambucil from the peptide carrier by purified MMPs; assay type: biochemical
Protocol: (§5) In-vitro release of Chlorambucil from the peptide carrier was carried out in a liquid phase as described in Example 19. Peptide I-Chlorambucil was dissolved in PBS, and incubated for 2 hours at 37° C. in the absence or presence of purified MMPs, or in the presence of conditioned medium of either human melanoma cells (HMCM) or human breast cancer cells (BCCM).
(§6) At the end of the incubation the reaction mixture was incubated with heparin-sepharose (30 minutes at 0° C.). The supernatant was collected, and the release of free chlorambucil was monitored by spectrophotometer at a wavelengh of 305 nm.

[3] = tested on: MMPs secreted by cancer cells (conditioned medium of human melanoma cells HMCM or human breast cancer cells BCCM); assay: In-vitro release of Chlorambucil from the peptide carrier by cancer cell conditioned medium; assay type: biochemical; conditions: PBS, 2 hours at 37° C., FIG. 6
Protocol: To find out whether proteases are secreted to the conditioned medium of cancer cells, breast cancer cells or melanoma cells were grown to sub-confluence in a 10 cm dish. The cells were washed with PBS, and further incubated with serum free medium. HUVE cells were grown to confluence at 10 cm dish. The cells were washed with M-199 medium, and conditioned with M-199 with 1% heat inactivated serum. The conditioned medium was collected after 24 hours.
as §5, §6

O=C(O)CCCc1ccc(N(CCCl)CCCl)cc1 [Chlorambucil, reference compound]
IC50 ([1]; Homo sapiens, HUVEC, HUVE (normal) cells, 72 hours, cell counting, FIG. 4B, read-out: IC50 (concentration of the drug measured at 50% of the cell death)): 2 µM | IC50 [2]: 2 µM

N[C@@H](Cc1ccc(N(CCCl)CCCl)cc1)C(=O)O [Melphalan, reference compound]
IC50 (HUVEC; Homo sapiens, HUVEC, HUVE cells, 72 hours, FIG. 5A): 0.1 µM | IC50 (melanoma cells): 0.07 µM

CC[C@H](C)[C@H](NC(=O)CNC(=O)[C@H](CC(C)C)NC(=O)[C@H](CC(C)C)NC(=O)CNC(=O)[C@H](Cc1ccc(O)cc1)NC(=O)[C@@H](N)Cc1ccc(N(CCCl)CCCl)cc1)C(=O)N[C@@H](C)C(=O)NCC(=O)N1CCC[C@H]1C(=O)N1CCC[C@H]1C(=O)NCC(=O)N1CCC[C@H]1C(=O)N1CCC[C@H]1C(=O)N[C@@H](CC(C)C)C(=O)N[C@@H](Cc1ccc(O)cc1)C(=O)N[C@@H](CCCCN)C(=O)N[C@@H](CCCCN)C(=O)N[C@H](C(=O)N[C@H](C(=O)N[C@@H](CCCCN)C(=O)N[C@@H](CCCCN)C(=O)N[C@@H](CC(C)C)C(=O)N[C@@H](CC(C)C)C(=O)N[C@@H](CCC(N)=O)C(=O)N[C@@H](CO)C(=O)O)[C@@H](C)CC)[C@@H](C)CC [Prodrug 1, Peptide I-Melphalan] (H-[Phe(4-N(CH2CH2Cl)2)]YGLLGIAGPPGPPLYKKIIKKLLQS-OH; N-terminus and C-terminus assumed)
times less toxic to normal cells (HUVEC; HUVE cells versus melanoma cells): 7 times

CC[C@H](C)[C@H](NC(=O)CNC(=O)[C@H](CC(C)C)NC(=O)[C@H](CC(C)C)NC(=O)CNC(=O)[C@H](Cc1ccc(O)cc1)NC(=O)CCCc1ccc(N(CCCl)CCCl)cc1)C(=O)N[C@@H](C)C(=O)NCC(=O)N1CCC[C@H]1C(=O)N1CCC[C@H]1C(=O)NCC(=O)N1CCC[C@H]1C(=O)N1CCC[C@H]1C(=O)N[C@@H](CC(C)C)C(=O)N[C@@H](Cc1ccc(O)cc1)C(=O)N[C@@H](CCCCN)C(=O)N[C@@H](CCCCN)C(=O)N[C@H](C(=O)N[C@H](C(=O)N[C@@H](CCCCN)C(=O)N[C@@H](CCCCN)C(=O)N[C@@H](CC(C)C)C(=O)N[C@@H](CC(C)C)C(=O)N[C@@H](CCC(N)=O)C(=O)N[C@@H](CO)C(=O)O)[C@@H](C)CC)[C@@H](C)CC [Prodrug 3, Peptide I-Chlorambucil] (Chlorambucil-YGLLGIAGPPGPPLYKKIIKKLLQS-OH)
effect of heparin on release of the chemotherapeutic agent from the peptide carrier (purified MMPs; presence of 10 μg/ml heparin, 2 hours incubation): inhibited the release | release of free chlorambucil from the peptide carrier (purified MMPs; purified MMPs, PBS, 2 hours at 37° C., read at 305 nm, FIG. 6): can be released | release of free chlorambucil from the peptide carrier [3]: can be released | times less toxic to normal cells ([1]; HUVE cells versus melanoma cells, cell counting): 30 times

YGLLGIAGPPGPPLYKKIIKKLLQS [peptide carrier]
toxicity to HUVEC ([1]; HUVEC, 72 hours, FIG. 4): not toxic
